Test: xn = mol fraction of the nth substance listed
Details: 101 kPa, Liquid; for speed of sound: Pulse-echo method; for mass density: Vibrating tube method

ClC(Cl)(Cl)Br [bromotrichloromethane] + BrCBr
Details | mass density, 293.15 K [kg/m3] | mass density, 298.15 K [kg/m3] | mass density, 303.15 K [kg/m3] | mass density, 308.15 K [kg/m3] | mass density, 313.15 K [kg/m3] | speed of sound, 293.15 K [m/s] | speed of sound, 298.15 K [m/s] | speed of sound, 303.15 K [m/s] | speed of sound, 308.15 K [m/s] | speed of sound, 313.15 K [m/s]
x1 = 0.0506 | 2455.57 | 2442.67 | 2429.69 | 2416.74 | 2403.73 | 957 | 944.4 | 931.7 | 919.1 | 906.4
x1 = 0.0993 | 2424.17 | 2411.4 | 2398.59 | 2385.75 | 2372.87 | 953 | 940.3 | 927.6 | 914.8 | 902.2
x1 = 0.1491 | 2392.98 | 2380.34 | 2367.61 | 2354.94 | 2342.21 | 948.9 | 936.2 | 923.4 | 910.7 | 898.1
x1 = 0.1991 | 2363.17 | 2350.66 | 2338.13 | 2325.48 | 2312.93 | 945.3 | 932.6 | 919.8 | 907.1 | 894.4
x1 = 0.2473 | 2335.59 | 2323.21 | 2310.8 | 2298.33 | 2285.84 | 942.1 | 929.3 | 916.5 | 903.7 | 891
x1 = 0.2986 | 2307.34 | 2295.08 | 2282.77 | 2270.45 | 2258.08 | 939.1 | 926.2 | 913.2 | 900.4 | 887.7
x1 = 0.3465 | 2281.89 | 2269.75 | 2257.58 | 2245.37 | 2233.11 | 936.3 | 923.3 | 910.5 | 897.6 | 884.8
x1 = 0.3979 | 2255.64 | 2243.64 | 2231.57 | 2219.48 | 2207.34 | 933.6 | 920.7 | 907.7 | 894.8 | 882
x1 = 0.4468 | 2231.41 | 2219.49 | 2207.52 | 2195.5 | 2183.5 | 931.3 | 918.3 | 905.3 | 892.4 | 879.5
x1 = 0.4967 | 2207.74 | 2195.91 | 2184.02 | 2172.16 | 2160.25 | 929.1 | 916.1 | 903.1 | 890.1 | 877.1
x1 = 0.5462 | 2185.38 | 2173.66 | 2161.9 | 2150.12 | 2138.31 | 927.2 | 914.1 | 901.1 | 888 | 875.1
x1 = 0.5975 | 2162.89 | 2151.29 | 2139.5 | 2128 | 2116.3 | 925.3 | 912.2 | 899.1 | 886.1 | 873.1
x1 = 0.6479 | 2141.49 | 2130.01 | 2118.46 | 2106.9 | 2095.25 | 923.7 | 910.6 | 897.4 | 884.4 | 871.4
x1 = 0.6947 | 2122.35 | 2110.96 | 2099.49 | 2087.96 | 2076.47 | 922.4 | 909.2 | 896 | 882.8 | 869.9
x1 = 0.7469 | 2101.9 | 2090.59 | 2079.21 | 2067.83 | 2056.41 | 921 | 907.7 | 894.5 | 881.4 | 868.4
x1 = 0.7959 | 2083.33 | 2072.08 | 2060.79 | 2049.47 | 2038.17 | 919.9 | 906.6 | 893.4 | 880.2 | 867.1
x1 = 0.8494 | 2063.55 | 2052.39 | 2041.21 | 2030.02 | 2018.79 | 918.8 | 905.5 | 892.2 | 879 | 865.9
x1 = 0.898 | 2046.2 | 2035.13 | 2024.04 | 2012.93 | 2001.78 | 918 | 904.6 | 891.3 | 878.1 | 865
x1 = 0.9469 | 2029.71 | 2018.65 | 2007.69 | 1996.65 | 1985.57 | 917.4 | 904 | 890.6 | 877.3 | 864.1
x1 = 1 | 2013.06 | 2002.14 | 1991.2 | 1980.24 | 1969.25 | 917.1 | 903.6 | 890.2 | 876.8 | 863.6

ClC(Cl)(Cl)Br [bromotrichloromethane] + CCCCCCC
Details | mass density, 293.15 K [kg/m3] | mass density, 298.15 K [kg/m3] | mass density, 303.15 K [kg/m3] | mass density, 308.15 K [kg/m3] | mass density, 313.15 K [kg/m3] | speed of sound, 293.15 K [m/s] | speed of sound, 298.15 K [m/s] | speed of sound, 303.15 K [m/s] | speed of sound, 308.15 K [m/s] | speed of sound, 313.15 K [m/s]
x1 = 0.0527 | 731.54 | 727.03 | 722.5 | 717.94 | 713.35 | 1126.6 | 1105.8 | 1085.1 | 1064.5 | 1044
x1 = 0.1116 | 786.88 | 782.07 | 777.25 | 772.39 | 767.5 | 1100.3 | 1080.2 | 1060.4 | 1040.5 | 1020.7
x1 = 0.152 | 826.09 | 821.09 | 816.04 | 810.96 | 805.84 | 1083.8 | 1064.4 | 1044.9 | 1025.3 | 1005.8
x1 = 0.2038 | 878.08 | 872.78 | 867.43 | 862.07 | 856.67 | 1064.1 | 1045.2 | 1026 | 1007 | 988.3
x1 = 0.2512 | 927.29 | 921.75 | 916.16 | 910.53 | 904.88 | 1047.4 | 1028.9 | 1010.4 | 992 | 973.6
x1 = 0.2988 | 978.53 | 972.69 | 966.84 | 960.93 | 955.01 | 1031.9 | 1013.7 | 995.8 | 977.7 | 959.8
x1 = 0.3556 | 1041.97 | 1035.81 | 1029.61 | 1023.38 | 1017.12 | 1015 | 997.3 | 979.7 | 962.2 | 944.8
x1 = 0.4027 | 1096.65 | 1090.21 | 1083.75 | 1077.23 | 1070.68 | 1001.9 | 984.7 | 967.5 | 950.4 | 933.3
x1 = 0.4603 | 1166.3 | 1159.5 | 1152.66 | 1145.8 | 1138.9 | 987.5 | 970.6 | 953.9 | 937.2 | 920.7
x1 = 0.4989 | 1214.82 | 1207.8 | 1200.71 | 1193.57 | 1186.41 | 978.4 | 962 | 945.5 | 929.2 | 912.9
x1 = 0.5537 | 1286.16 | 1278.76 | 1271.34 | 1263.88 | 1256.37 | 966.7 | 950.6 | 934.7 | 918.8 | 902.9
x1 = 0.5961 | 1343.68 | 1336 | 1328.29 | 1320.53 | 1312.74 | 958.4 | 942.8 | 927.1 | 911.3 | 895.9
x1 = 0.6562 | 1428.79 | 1420.68 | 1412.54 | 1404.37 | 1396.16 | 948 | 932.8 | 917.4 | 902.2 | 887.1
x1 = 0.7088 | 1506.86 | 1498.38 | 1489.86 | 1481.3 | 1472.71 | 940.1 | 925.2 | 910.3 | 895.4 | 880.6
x1 = 0.7486 | 1568.29 | 1559.53 | 1550.71 | 1541.85 | 1532.96 | 934.8 | 920 | 905.3 | 890.7 | 876.2
x1 = 0.8001 | 1651.09 | 1641.91 | 1632.7 | 1623.44 | 1614.16 | 929 | 914.5 | 900.1 | 885.8 | 871.5
x1 = 0.8456 | 1727.53 | 1717.98 | 1708.38 | 1698.77 | 1689.12 | 924.6 | 910.4 | 896.2 | 882.2 | 868.2
x1 = 0.899 | 1821.57 | 1811.56 | 1801.52 | 1791.47 | 1781.35 | 920.6 | 906.7 | 892.8 | 879 | 865.3
x1 = 0.9521 | 1919.55 | 1909.09 | 1898.58 | 1888.06 | 1877.49 | 918 | 904.4 | 890.7 | 877.2 | 863.7
x1 = 1 | 2013.06 | 2002.14 | 1991.2 | 1980.24 | 1969.25 | 917.1 | 903.6 | 890.2 | 876.8 | 863.6
